Source: ChEMBL document CHEMBL1135960 (Bioorg Med Chem Lett, 2002)
pKi: −log10 of the molar value. The source made the active and inactive calls. No cut-off for these calls is given here.

Experiments:
[1] = target: T1, Serotonin 3 (5-HT3) receptor (Homo sapiens) (UniProt P46098+A5X5Y0+O95264+Q70Z44+Q8WXA8); assay: Intrinsic activity towards CNS 5-hydroxytryptamine 3 receptor was determined; A: agonist; format: functional; conditions: filed as agonist
[2] = target: Serotonin 3 (5-HT3) receptor; assay: Binding affinity towards 5-hydroxytryptamine 3 receptor; format: protein-complex assay
[3] = target: T1, Serotonin 3 (5-HT3) receptor (Homo sapiens); assay: Intrinsic activity towards 5-hydroxytryptamine 3 receptor was determined by Benzold-Jarisch reflex (peripheral assay); ANT: antagonist; format: functional; conditions: filed as antagonist
[4] = target: T1, Serotonin 3 (5-HT3) receptor (Homo sapiens); assay: Intrinsic activity towards 5-hydroxytryptamine 3 receptor was determined by Benzold-Jarisch reflex (peripheral assay); A: agonist; format: functional; conditions: filed as agonist
[5] = target: T1, Serotonin 3 (5-HT3) receptor (Homo sapiens); assay: Intrinsic activity towards CNS 5-hydroxytryptamine 3 receptor was determined; NA: not active; format: protein-complex assay
[6] = test system: Serotonin 3 (5-HT3) receptor; assay: Binding affinity of compound towards 5-hydroxytryptamine 3 receptor; NA: not active; format: protein-complex assay
[7] = target: T1, Serotonin 3 (5-HT3) receptor (Homo sapiens); assay: Intrinsic activity towards CNS 5-hydroxytryptamine 3 receptor was determined; ANT: Antagonist; format: functional; conditions: filed as antagonist
[8] = target: T1, Serotonin 3 (5-HT3) receptor (Homo sapiens); assay: Intrinsic activity towards 5-hydroxytryptamine 3 receptor was determined by Benzold-Jarisch reflex (peripheral assay); PA: Partial agonist; format: functional; conditions: filed as partial agonist

Row | SMILES | Intrinsic activity [1] | pKi [2] | Intrinsic activity [4] | also measured
1 | NC1CCN(c2cccc(Cl)n2)CC1 | Agonist | 6.99 |  | 
2 | CN1CCN(c2nc3ccccc3c3ccccc23)CC1 | Agonist | 8.72 |  | 
3 | CN1CCN(c2nc3ccccc3c3c2CCCC3)CC1 |  | 9.64 |  | 
4 | Clc1ccc2ccc(N3CCNCC3)nc2c1 |  | 7.42 |  | Intrinsic activity [3]: Antagonist
5 | NCCc1c[nH]c2ccc(O)cc12 | Agonist |  | Agonist | 
6 | CN1CCN(c2cc3cc(C(F)(F)F)ccc3n3cccc23)CC1 |  |  |  | Intrinsic activity [5]: inactive; Intrinsic activity [3]: Antagonist; Ki [6]: Not Active
7 | CN1CCN(c2nc3ccccc3c3c2CC2CCC3C2)CC1 (stereo not drawn) |  | 9.08 |  | Intrinsic activity [7]: Antagonist
8 | Cc1[nH]c2ccc(O)cc2c1CCN | Agonist |  | Agonist | 
9 | O=[N+]([O-])c1ccc2nc(N3CCNCC3)ccc2c1 [6-NITROQUIPAZINE] |  | 7.24 |  | Intrinsic activity [3]: Antagonist
10 | N=C(N)NC(=N)Nc1ccc2ccccc2c1 |  |  | Agonist | 
11 | N=C(N)Nc1ccc2ccccc2c1 |  |  | Agonist | 
12 | c1ccc2nc(N3CCNCC3)ccc2c1 | Agonist |  |  | Intrinsic activity [8]: Partial agonist
13 | CN1CCN(c2nc3ccccc3n3cccc23)CC1 | Agonist | 9.64 |  | Intrinsic activity [3]: Antagonist
14 | N=C(N)NC(=N)Nc1ccccc1 | Agonist |  | Agonist | 
15 | N=C(N)Nc1cccc(Cl)c1 |  |  | Agonist | 
16 | N=C(N)NC(=N)Nc1cccc(Cl)c1 | Agonist |  | Agonist | 
17 | CN1CCN(c2cc3cc(F)ccc3n3cccc23)CC1 | Agonist | 9.29 |  | Intrinsic activity [3]: Antagonist
